The record followed here is patent US4560693A, “[1,3]-Dioxolo[4,5-f]benzimidazoles and [1,4]-dioxino[2,3-f]benzimidazoles” (Byk Gulden Lomberg Chemische Fabrik GmbH, priority 1983, dated 1985).

Assay [1] deals with gastric lesion formation (rat stomach). Put plainly: Antiulcerogenic action / protective effect on the stomach (modified Shay rat: pyloric ligature plus oral acetylsalicylic acid). The assay is classed as in vivo. Particulars: rats, perorally, 1 h before pyloric ligature, 100 mg/kg acetylsalicylic acid orally, dose reducing lesion index by 50% vs control, 4 h, read-out: Protective effect on the stomach: Inhibition of the lesion index, ED50. As to the method: (§1) In these experiments, the compounds according to the invention were compared with prior art compounds (A-D) of UK Patent Application GB No. 2 082 580. The compounds investigated are numbered as follows:
(§2) The influence of the compounds according to the invention on gastric lesion formation induced by pyloric ligature (4 h; so-called Shay rat) and oral administration of 100 mg/kg of acetylsalicylic acid, and the gastric secretion (HCl) in the course of 4 h in rats is shown in the following table.
(§3) *ED25 und ED50 = dose which reduces the lesion index or the HCl secretion
(§4) (4h) in the rat stomach by 25 and, respectively, 50% in the treated group
(§5) in comparison with the control group.
The antiulcerogenic action was tested by the so-called Shay rat method:
(§6) Ulcers are caused in rats which have been fasted for 24 hours (female, 180-200 g, 4 animals per cage on a high grid) by pyloric ligature (under diethyl ether anesthesia) and oral administration of 100 mg/10 ml/kg of acetylsalicylic acid. The substances to be tested are administered orally (10 ml/kg) one hour before the pyloric ligature. The wound is closed by means of Michel clamps. 4 hours thereafter, the animals are sacrificed under ether anesthesia by Atlas dislocation and resection of the stomach. The stomach is opened longitudinally and attached to a cork plate, after the amount of gastric juice secreted (volume) and later its HCl content (titration with sodium hydroxide solution) have first been determined; the number and size (=diameter) of the ulcers present are determined under a stereomicroscope at 10-fold magnification. The product of the degree of severity (according to the following points scale) and number of ulcers serves as the individual lesion index.
Ulcer diameter 0.1-1.4 mm: 1
(§7) The reduction in the average lesion index of each treated group compared with the control group (=100%) serves as a measure of the antiulcerogenic effect.

Another assay concerns gastric secretion (HCl). Put plainly: Inhibition of gastric secretion (HCl) in the Shay rat over 4 h. The assay is classed as in vivo. The conditions noted are these: rats; for ED25 / ED50: Rattus norvegicus, po, perorally; for ED25: dose reducing HCl secretion (4 h) by 25% vs control; for ED50: dose reducing HCl secretion (4 h) by 50% vs control; for Gastric secretion: % inhibition of HCl secretion: after administration of the antiulcerous ED50, 4 h. The procedure: as §1, §2, §3, §4, §5
**after administration of the antiulcerous ED50.
as §6, §7

Consider `COc1ccnc(C[S+]([O-])c2nc3cc4c(cc3[nH]2)OCCO4)c1` (stereo not drawn) [Serial No. D, 6,7-Dihydro-2-[(4-methoxy-2-pyridyl)methylsulfinyl]-1H--[1,4]-dioxino[2,3-f]benzimidazole, reference compound], for which the ED50 in assay [1] came to 30 mg/kg. In the assay on gastric secretion (HCl), the ED25 was more than 30 mg/kg, the ED50 was more than 30 mg/kg and the “Gastric secretion: % inhibition of HCl secretion” value (“Gastric secretion: % inhibition” for short) is 0%.

As for `COc1ccnc(CSc2nc3cc4c(cc3[nH]2)OCO4)c1` [Serial No. A, 6-[(4-Methoxy-2-pyridyl)methylthio]-5H--[1,3]-dioxolo-[4,5-f]benzimidazole, reference compound], in assay [1], the ED50 is more than 10 mg/kg. In the assay on gastric secretion (HCl), this compound yielded an ED25 of more than 10 mg/kg.

Turning to `COc1ccnc(C[S+]([O-])c2nc3cc4c(cc3[nH]2)OC(F)(F)O4)c1C` (stereo not drawn) [Serial No. 2, 2,2-difluoro-6-[(4-methoxy-3-methyl-2-pyridyl)methylsulfinyl]-5H-[1,3]-dioxolo-[4,5-f]benzimidazole], in assay [1], the ED50 was determined as 0.4 mg/kg. Besides, in the assay with gastric secretion (HCl), the ED25 was less than 0.3 mg/kg, it took a dose of 0.6 mg/kg to reach the 50% effect level (ED50) and the “Gastric secretion: % inhibition” value is 30%.

With `COc1ccnc(CSc2nc3cc4c(cc3[nH]2)OC(F)(F)C(F)O4)c1` (stereo not drawn) [Serial No. 4, 6,6,7-Trifluoro-6,7-dihydro-2-[(4-methoxy-2-pyridyl)-methylthio]-1H--[1,4]-dioxino[2,3-f]benzimidazole], the ED50 in assay [1] was 0.6 mg/kg. Moreover, in the assay on gastric secretion (HCl), the ED25 was 1 mg/kg, the ED50 was 1.7 mg/kg and the “Gastric secretion: % inhibition” value is listed as 25%.

As to `COc1c(C)cnc(C[S+]([O-])c2nc3cc4c(cc3[nH]2)OC(F)C(F)(F)O4)c1C` (stereo not drawn) [Serial No. 9, 6,6,7-trifluoro-6,7-dihydro-2-[(4-methoxy-3,5-dimethyl-2-pyridyl)methylsulfinyl]-1H-[1,4]-dioxino[2,3-f]benzimidazole], the ED50 in assay [1] came to 0.5 mg/kg. For the same compound, in the assay on gastric secretion (HCl), the ED25 is 0.7 mg/kg, the 50% effect level (ED50) was put at a dose of 1 mg/kg and the “Gastric secretion: % inhibition” value amounted to 15%.

Consider `COc1ccnc(CSc2nc3cc4c(cc3[nH]2)OC(F)(F)O4)c1C` [Serial No. 7, 2,2-difluoro-6-[(4-methoxy-3-methyl-2-pyridyl)methylthio]-5H-[1,3]-dioxolo[4,5-f]benzimidazole], for which the ED50 in assay [1] stood at 0.6 mg/kg. Besides, in the assay on gastric secretion (HCl), the ED25 was 0.6 mg/kg, the ED50 is more than 1 mg/kg and the “Gastric secretion: % inhibition” value came out at 25%.

Consider `COc1ccnc(C[S+]([O-])c2nc3cc4c(cc3[nH]2)OCO4)c1` (stereo not drawn) [Serial No. B, 6-[(4-Methoxy-2-pyridyl)methylsulffinyl]-5H--[1,3]-dioxolo-[4,5-f]benzimidazole, reference compound], for which the ED50 in assay [1] is approximately 5 mg/kg.

With `COc1ccnc(C[S+]([O-])c2nc3cc4c(cc3[nH]2)OC(F)C(F)(F)O4)c1` (stereo not drawn) [Serial No. 3, 6,6,7-Trifluoro-6,7-dihydro-2-[(4-methoxy-2-pyridyl)methylsulfinyl]-1H-[1,4]-dioxino[2,3-f]benzimidazole], in assay [1], the ED50 was 0.45 mg/kg. Besides, in the assay on gastric secretion (HCl), the ED25 amounted to 0.5 mg/kg, the ED50 worked out at 1.4 mg/kg and the “Gastric secretion: % inhibition” value is 23%.

As to `COc1ccnc(C[S+]([O-])c2nc3cc4c(cc3[nH]2)OC(F)C(F)(F)O4)c1C` (stereo not drawn) [Serial No. 5, 6,6,7-trifluoro-6,7-dihydro-2-[(4-methoxy-3-methyl-2-pyridyl)methylsulfinyl]-1H-[1,4]-dioxino[2,3-f]benzimidazole], the ED50 in assay [1] was found to be 0.35 mg/kg. In the assay with gastric secretion (HCl), the ED25 is less than 0.3 mg/kg, the ED50 turned out to be 0.6 mg/kg and the “Gastric secretion: % inhibition” value is listed as 35%.

Take `COc1ccnc(C[S+]([O-])c2nc3cc4c(cc3[nH]2)OC(F)(F)O4)c1` (stereo not drawn) [Serial No. 1, 2,2-Difluoro-6-[(4-methoxy-2-pyridyl)methylsulfinyl]-5H--[1,3]-dioxolo[4,5-f]benzimidazole]: the ED50 in assay [1] was determined as 0.6 mg/kg. In the assay on gastric secretion (HCl), the ED25 was determined as 0.6 mg/kg, the ED50 amounted to 0.9 mg/kg and the “Gastric secretion: % inhibition” value was determined as 25%.

For `COc1ccnc(CSc2nc3cc4c(cc3[nH]2)OC(F)C(F)(F)O4)c1C` (stereo not drawn) [Serial No. 6, 6,6,7-trifluoro-6,7-dihydro-2-[(4-methoxy-3-methyl-2-pyridyl)methylthio]-1H-[1,4]-dioxino[2,3-f]benzimidazole], the ED50 in assay [1] is 0.6 mg/kg. In the assay with gastric secretion (HCl), the ED25 is 0.7 mg/kg, the ED50 stood at 1.4 mg/kg and the “Gastric secretion: % inhibition” value stood at 20%.

Turning to `COc1ccnc(C[S+]([O-])c2nc3cc4c(cc3[nH]2)OC(F)(F)C(F)(Cl)O4)c1C` (stereo not drawn) [Serial No. 10, 6-Chloro-6,7,7-trifluoro-6,7-dihydro-2-[(4-methoxy-3-methyl-2-pyridyl)methylsulfinyl]-1H-[1,4]-dioxino[2,3-f]benzimidazole], the ED50 in assay [1] is 0.4 mg/kg. Further, in the assay on gastric secretion (HCl), the ED25 worked out at 0.4 mg/kg, the ED50 came out at 0.7 mg/kg and the “Gastric secretion: % inhibition” value came to 25%.

Regarding `COc1cc(C[S+]([O-])c2nc3cc4c(cc3[nH]2)OC(F)(F)O4)ncc1C` (stereo not drawn) [Serial No. 8, 2,2-difluoro-6-[(4-methoxy-5-methyl-2-pyridyl)methylsulfinyl]-5H-[1,3]-dioxolo[4,5-f]benzimidazole], the ED50 in assay [1] was 0.5 mg/kg. Further, in the assay with gastric secretion (HCl), the ED25 amounted to 1 mg/kg, the ED50 worked out at 2.5 mg/kg and the “Gastric secretion: % inhibition” value was 17%.

As for `COc1ccnc(CSc2nc3cc4c(cc3[nH]2)OCCO4)c1` [Serial No. C, 6,7-Dihydro-2-[(4-methoxy-2-pyridyl)methylthio]-1H--[1,4]-dioxino[2,3-f]benzimidazole, reference compound], in assay [1], the ED50 was 30 mg/kg. For the same compound, in the assay on gastric secretion (HCl), the ED25 was more than 30 mg/kg, the ED50 is more than 30 mg/kg and the “Gastric secretion: % inhibition” value is reported as 19%.

In general, ED50 refers to the dose that gives a 50% effect, or the effect in half of the subjects.
